# Reference: patent publication US11326174B2, “Engineered yeast strains enabling anaerobic xylose fermentation decoupled from microbial growth” (Wisconsin Alumni Research Foundation, priority 2018, dated 2022)
# “Also recorded” adds a separate entry of the source.
# Key:
# tpk2^as = molecular target: T1, tpk2^as (Saccharomyces cerevisiae, UniProt P06245, M147G); test: Inhibition of analog-sensitive PKA in Y133 tpk1Δtpk3Δtpk2^as during anaerobic growth on xylose; assay type: cell-based; conditions: 10 μM 1-NM-PP1 added after 17 hours
# T1 construct: tpk2as repair templates were generated by PCR of the whole ORF of tpk2as; endogenous in cells; host or cells: S. cerevisiae Y133 tpk1Δtpk3Δtpk2^as; allele placed at the chromosomal TPK2 locus by CRISPR/Cas9 editing
# T1 sequence (P06245 whole entry M147G): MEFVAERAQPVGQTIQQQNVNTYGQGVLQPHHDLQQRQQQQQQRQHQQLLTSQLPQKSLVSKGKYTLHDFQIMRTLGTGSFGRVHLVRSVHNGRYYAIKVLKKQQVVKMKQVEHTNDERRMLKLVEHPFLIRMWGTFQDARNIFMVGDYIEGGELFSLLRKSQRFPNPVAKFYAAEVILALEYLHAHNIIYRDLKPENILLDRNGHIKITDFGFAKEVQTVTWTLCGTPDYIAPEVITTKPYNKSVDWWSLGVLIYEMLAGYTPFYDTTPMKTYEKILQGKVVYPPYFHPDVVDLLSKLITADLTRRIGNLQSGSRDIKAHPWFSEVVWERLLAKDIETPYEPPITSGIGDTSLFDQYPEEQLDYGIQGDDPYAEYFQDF
# Excerpt: Y133 tpk1Δtpk3Δtpk2^as was generated using CRISPR/Cas9-mediated genome editing. TPK1 and TPK3 were deleted in Y133 independently and verified by PCR. sgRNA sequence ([…]) that targeted the location within TPK2 to be replaced was cloned into the pXIPHOS vector using Not1 (GenBank accession MG897154), which contains the constitutive RNR2 promoter driving the Cas9 gene and NatMX resistance gene, using gapped plasmid repair using HiFi DNA Assembly Master Mix from NEB. tpk2as repair templates were generated by PCR of the whole ORF of tpk2as from a strain containing mutants of the TPK genes that are sensitive to the ATP-analogue inhibitor 1-NM-PP1 (TPK1 M164G, TPK2 M147G, TPK3 M165G). Purified repair templates were co-transformed at a 20-fold molar excess with the pXIPHOS-TPK2 sgRNA plasmid into Y133 tpk1Δtpk3Δ strain. Colonies resistant to nourseothricin were restreaked onto YPD two times to remove the plasmid (and were verified to now be sensitive to nourseothricin) and tpk2as presence was verified by sequencing. Y133 tpk1Δtpk3Δtpk2^as was grown in xylose anaerobically for 17 hours at which point 10 μM 1-NM-PP1 or DMSO control was added to the cultures.
# PKA = PKA activity assay: in vitro phosphorylation of a PKA substrate by cell lysate; assay type: biochemical, Saccharomyces cerevisiae; conditions: 50 μM H-89
# Method: PKA activity assay. Measurement of PKA activity was performed on lysed cells using the PKA Kinase Activity Assay Kit from ABCAM. Cultures were grown anaerobically in xylose for three doublings (to OD˜0.5), at which 10 mL of cells were collected by centrifugation for 3 minutes at 3000 rpm, in preparation for lysis. Supernatant was removed under anaerobic conditions and the cells were resuspended in 1 mL of SB buffer (1 M sorbitol, 20 mM Tris HCl, pH 7.4) with 300 units of zymolyase (Amsbio) and 10 μL of protease inhibitor cocktail IV (Millipore). Cells were incubated for 10 minutes at 30° C. anaerobically. Cells were collected by […] for 5 minutes at 350×g and washed 1× with SB buffer under anaerobic conditions. Cells were resuspended in 750 μL HLB buffer (10 mM Tris HCl, pH 7.4, 10 mM NaCl, 3 mM MgCl2, 0.3% (vol/vol) NP-40, 10% (vol/vol) glycerol) with 10 μL protease inhibitor cocktail IV and incubated on ice for 10 minutes, anaerobically. […] Lysis was verified using microscopy and total protein abundance was determined using a Bradford assay. […] The reaction was detected using a TECAN Infinite 200 Pro with a wavelength of 450 nm. […] Relative PKA activity was calculated by subtracting […] to remove background, followed by normalization to total protein abundance for each sample. […]
# Y128 = test: Inhibition of growth using hydroxyurea during anaerobic growth on xylose; assay type: cell-based, Saccharomyces cerevisiae; conditions: 400 mM hydroxyurea added after 17 hours
# Method: Inhibition of growth using hydroxyurea. Growth inhibition was performed using 400 mM hydroxyurea, added after 17 hours of anaerobic growth in xylose. Before and after growth inhibition, OD600 as well as sugar and ethanol concentrations were measured as above.
compound,measurement,setting,value
CC(C)(C)n1nc(Cc2cccc3ccccc23)c2c(N)ncnc21 [Strain 1-NM-PP1],Effect on growth and fermentation during anaerobic xylose utilization,tpk2^as,rapidly inhibited growth and fermentation
O=S(=O)(NCCNC/C=C/c1ccc(Br)cc1)c1cccc2cnccc12 [Strain H-89],Effect on phosphorylation of a PKA substrate in vitro,PKA; lysate from Y128 grown anaerobically on xylose,blocked
same,Effect on phosphorylation of a PKA target in vitro,PKA; lysate from Y184 bcy1Δ grown anaerobically on xylose,blocked
NC(=O)NO [hydroxyurea],Effect on anaerobic xylose utilization,Y128,does not promote anaerobic xylose utilization; also recorded: halted xylose utilization
same,Effect on growth (OD600),Y128,inhibits growth
